In ChEMBL document CHEMBL5113398, “Design and synthesis of new quinoline derivatives as selective C-RAF kinase inhibitors with potent anticancer activity” (Eur J Med Chem, 2022):
In brackets after ≈: the same amount, converted by molar mass.

Columns and labels:
[1] = test system: SK-MEL-28; assay: Anticancer activity against human SK-MEL-28 cells assessed as total cell growth inhibition incubated for 48 hrs by SRB assay; assay type: functional
[2] = test system: A498; assay: Anticancer activity against human A498 cells assessed as total cell growth inhibition incubated for 48 hrs by SRB assay; assay type: functional
[3] = test system: TK-10; assay: Anticancer activity against human TK-10 cells assessed as cell growth inhibition incubated for 48 hrs by SRB assay; assay type: functional
[4] = test system: A549; assay: Anticancer activity against human A549 cells assessed as total cell growth inhibition incubated for 48 hrs by SRB assay; assay type: functional
[5] = test system: HCT-116; assay: Anticancer activity against human HCT-116 cells assessed as total cell growth inhibition incubated for 48 hrs by SRB assay; assay type: functional
[6] = test system: SK-MEL-5; assay: Anticancer activity against human SK-MEL-5 cells assessed as total cell growth inhibition incubated for 48 hrs by SRB assay; assay type: functional
[7] = test system: ACHN; assay: Anticancer activity against human ACHN cells assessed as total cell growth inhibition incubated for 48 hrs by SRB assay; assay type: functional
[8] = test system: EKVX; assay: Anticancer activity against human EKVX cells assessed as cell growth inhibition incubated for 48 hrs by SRB assay; assay type: functional
[9] = test system: HT-29; assay: Anticancer activity against human HT-29 cells assessed as cell growth inhibition incubated for 48 hrs by SRB assay; assay type: functional
[10] = test system: K562; assay: Anticancer activity against human K562 cells assessed as total cell growth inhibition incubated for 48 hrs by SRB assay; assay type: functional
[11] = test system: HOP-62; assay: Anticancer activity against human HOP-62 cells assessed as cell growth inhibition incubated for 48 hrs by SRB assay; assay type: functional
[12] = test system: DU-145; assay: Anticancer activity against human DU-145 cells assessed as cell growth inhibition incubated for 48 hrs by SRB assay; assay type: functional
[13] = test system: COLO 205; assay: Anticancer activity against human COLO 205 cells assessed as cell growth inhibition incubated for 48 hrs by SRB assay; assay type: functional
[14] = test system: DU-145; assay: Anticancer activity against human DU-145 cells assessed as total cell growth inhibition incubated for 48 hrs by SRB assay; assay type: functional
[15] = target: Platelet-derived growth factor receptor alpha (Homo sapiens) (UniProt P16234); assay: Inhibition of PDGFRalpha (unknown origin) at 1 uM in presence of ATP by hotspot kinase assay
Chain of Platelet-derived growth factor receptor alpha (Homo sapiens) (P16234 whole entry): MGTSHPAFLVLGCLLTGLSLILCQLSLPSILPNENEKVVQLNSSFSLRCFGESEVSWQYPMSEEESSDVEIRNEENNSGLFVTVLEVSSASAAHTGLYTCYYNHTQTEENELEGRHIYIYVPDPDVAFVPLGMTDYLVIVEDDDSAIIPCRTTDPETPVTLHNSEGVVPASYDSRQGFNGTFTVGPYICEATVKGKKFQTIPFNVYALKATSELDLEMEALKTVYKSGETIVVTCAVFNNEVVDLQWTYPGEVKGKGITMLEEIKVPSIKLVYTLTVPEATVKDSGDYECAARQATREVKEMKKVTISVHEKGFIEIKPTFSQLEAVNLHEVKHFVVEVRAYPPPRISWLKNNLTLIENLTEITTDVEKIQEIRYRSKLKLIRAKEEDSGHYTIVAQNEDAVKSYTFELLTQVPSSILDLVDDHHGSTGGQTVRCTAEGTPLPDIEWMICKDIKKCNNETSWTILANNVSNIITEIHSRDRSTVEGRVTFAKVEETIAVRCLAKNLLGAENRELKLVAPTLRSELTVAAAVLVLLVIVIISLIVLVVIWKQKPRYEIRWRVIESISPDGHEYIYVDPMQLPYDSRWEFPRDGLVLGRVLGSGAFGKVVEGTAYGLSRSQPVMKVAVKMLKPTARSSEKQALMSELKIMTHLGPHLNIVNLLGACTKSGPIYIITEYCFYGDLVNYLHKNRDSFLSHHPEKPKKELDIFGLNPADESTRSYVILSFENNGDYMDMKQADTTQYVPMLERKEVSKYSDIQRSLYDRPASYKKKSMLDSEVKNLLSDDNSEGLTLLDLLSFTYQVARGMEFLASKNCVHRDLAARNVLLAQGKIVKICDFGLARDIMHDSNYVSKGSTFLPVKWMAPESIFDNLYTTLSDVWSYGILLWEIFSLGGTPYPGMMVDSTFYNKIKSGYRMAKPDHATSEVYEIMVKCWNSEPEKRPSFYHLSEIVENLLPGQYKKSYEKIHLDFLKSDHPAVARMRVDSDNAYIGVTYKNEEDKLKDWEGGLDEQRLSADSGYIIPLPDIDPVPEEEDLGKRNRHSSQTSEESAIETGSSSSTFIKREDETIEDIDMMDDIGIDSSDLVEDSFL

[16] = test system: NCI-H23; assay: Anticancer activity against human NCI-H23 cells assessed as total cell growth inhibition incubated for 48 hrs by SRB assay; assay type: functional
[17] = test system: HCC 2998; assay: Anticancer activity against human HCC 2998 cells assessed as total cell growth inhibition incubated for 48 hrs by SRB assay; assay type: functional
[18] = test system: OVCAR-8; assay: Anticancer activity against human OVCAR-8 cells assessed as cell growth inhibition incubated for 48 hrs by SRB assay; assay type: functional
[19] = test system: Malme-3M; assay: Anticancer activity against human Malme-3M cells assessed as cell growth inhibition incubated for 48 hrs by SRB assay; assay type: functional
[20] = test system: MDA-MB-435; assay: Anticancer activity against human MDA-MB-435 cells assessed as total cell growth inhibition incubated for 48 hrs by SRB assay; assay type: functional
[21] = target: Receptor-type tyrosine-protein kinase FLT3 (Homo sapiens) (UniProt P36888); assay: Inhibition of FLT3 (unknown origin) at 1 uM in presence of ATP by hotspot kinase assay
Chain of Receptor-type tyrosine-protein kinase FLT3 (Homo sapiens) (P36888 whole entry): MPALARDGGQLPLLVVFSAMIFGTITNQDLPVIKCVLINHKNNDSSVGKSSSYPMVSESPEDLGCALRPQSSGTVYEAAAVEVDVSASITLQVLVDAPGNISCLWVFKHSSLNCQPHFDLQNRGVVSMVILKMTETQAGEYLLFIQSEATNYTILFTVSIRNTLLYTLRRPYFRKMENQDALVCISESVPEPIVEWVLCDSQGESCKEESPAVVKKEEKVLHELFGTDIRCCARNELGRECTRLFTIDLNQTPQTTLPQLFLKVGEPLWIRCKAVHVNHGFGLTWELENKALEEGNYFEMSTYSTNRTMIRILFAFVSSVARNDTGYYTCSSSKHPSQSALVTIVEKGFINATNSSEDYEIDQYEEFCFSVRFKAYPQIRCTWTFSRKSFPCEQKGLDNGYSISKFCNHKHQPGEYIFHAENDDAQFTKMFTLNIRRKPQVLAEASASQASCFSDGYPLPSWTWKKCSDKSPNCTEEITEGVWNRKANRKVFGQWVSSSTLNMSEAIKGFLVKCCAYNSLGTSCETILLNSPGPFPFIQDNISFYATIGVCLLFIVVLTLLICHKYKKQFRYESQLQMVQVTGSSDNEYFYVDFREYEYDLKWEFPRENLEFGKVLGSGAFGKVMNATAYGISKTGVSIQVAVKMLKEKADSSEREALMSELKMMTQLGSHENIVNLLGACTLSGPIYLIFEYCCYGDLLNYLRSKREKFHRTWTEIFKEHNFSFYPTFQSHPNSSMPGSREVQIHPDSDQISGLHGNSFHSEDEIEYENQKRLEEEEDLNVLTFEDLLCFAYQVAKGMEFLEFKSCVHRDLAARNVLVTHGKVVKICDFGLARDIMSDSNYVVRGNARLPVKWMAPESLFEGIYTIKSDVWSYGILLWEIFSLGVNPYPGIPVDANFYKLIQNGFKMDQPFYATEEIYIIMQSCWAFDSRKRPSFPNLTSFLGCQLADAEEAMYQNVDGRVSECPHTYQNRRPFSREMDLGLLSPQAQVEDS

[22] = test system: BT-549; assay: Anticancer activity against human BT-549 cells assessed as cell growth inhibition incubated for 48 hrs by SRB assay; assay type: functional
[23] = test system: PC-3; assay: Anticancer activity against human PC-3 cells assessed as total cell growth inhibition incubated for 48 hrs by SRB assay; assay type: functional
[24] = test system: MDA-MB-231; assay: Anticancer activity against human MDA-MB-231 cells assessed as cell growth inhibition incubated for 48 hrs by SRB assay; assay type: functional
[25] = test system: NCI/ADR-RES; assay: Anticancer activity against human NCI/ADR-RES cells assessed as cell growth inhibition incubated for 48 hrs by SRB assay; assay type: functional
[26] = test system: NCI-H460; assay: Anticancer activity against human NCI-H460 cells assessed as total cell growth inhibition incubated for 48 hrs by SRB assay; assay type: functional
[27] = target: Dual specificity mitogen-activated protein kinase kinase 2 (Homo sapiens) (UniProt P36507); assay: Inhibition of MEK2 (unknown origin) at 1 uM in presence of ATP by hotspot kinase assay
Chain of Dual specificity mitogen-activated protein kinase kinase 2 (Homo sapiens) (P36507 whole entry): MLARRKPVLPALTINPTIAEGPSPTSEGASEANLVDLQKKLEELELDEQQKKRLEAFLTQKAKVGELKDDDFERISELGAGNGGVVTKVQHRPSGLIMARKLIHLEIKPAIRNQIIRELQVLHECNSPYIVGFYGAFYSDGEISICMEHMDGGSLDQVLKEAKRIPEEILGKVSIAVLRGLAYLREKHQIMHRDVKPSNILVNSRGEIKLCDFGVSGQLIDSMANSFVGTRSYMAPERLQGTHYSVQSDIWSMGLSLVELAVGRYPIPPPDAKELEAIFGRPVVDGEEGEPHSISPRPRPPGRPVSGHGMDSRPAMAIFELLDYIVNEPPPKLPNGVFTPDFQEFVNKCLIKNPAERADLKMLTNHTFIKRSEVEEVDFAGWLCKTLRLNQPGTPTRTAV

[28] = test system: SK-MEL-28; assay: Anticancer activity against human SK-MEL-28 cells assessed as cell growth inhibition incubated for 48 hrs by SRB assay; assay type: functional
[29] = Aqueous solubility of compound by HPLC analysis; assay type: physicochemical
[30] = test system: NCI-H226; assay: Anticancer activity against human NCI-H226 cells assessed as total cell growth inhibition incubated for 48 hrs by SRB assay; assay type: functional
[31] = test system: RPMI-8226; assay: Anticancer activity against human RPMI-8226 cells assessed as cell growth inhibition incubated for 48 hrs by SRB assay; assay type: functional
[32] = test system: U-251; assay: Anticancer activity against human U-251 cells assessed as total cell growth inhibition incubated for 48 hrs by SRB assay; assay type: functional
[33] = test system: SF-539; assay: Anticancer activity against human SF-539 cells assessed as cell growth inhibition incubated for 48 hrs by SRB assay; assay type: functional
[34] = test system: Malme-3M; assay: Anticancer activity against human Malme-3M cells assessed as total cell growth inhibition incubated for 48 hrs by SRB assay; assay type: functional
[35] = target: Dual specificity mitogen-activated protein kinase kinase 1 (Homo sapiens) (UniProt Q02750); assay: Inhibition of MEK1 (unknown origin) at 1 uM in presence of ATP by hotspot kinase assay
Chain of Dual specificity mitogen-activated protein kinase kinase 1 (Homo sapiens) (Q02750 whole entry): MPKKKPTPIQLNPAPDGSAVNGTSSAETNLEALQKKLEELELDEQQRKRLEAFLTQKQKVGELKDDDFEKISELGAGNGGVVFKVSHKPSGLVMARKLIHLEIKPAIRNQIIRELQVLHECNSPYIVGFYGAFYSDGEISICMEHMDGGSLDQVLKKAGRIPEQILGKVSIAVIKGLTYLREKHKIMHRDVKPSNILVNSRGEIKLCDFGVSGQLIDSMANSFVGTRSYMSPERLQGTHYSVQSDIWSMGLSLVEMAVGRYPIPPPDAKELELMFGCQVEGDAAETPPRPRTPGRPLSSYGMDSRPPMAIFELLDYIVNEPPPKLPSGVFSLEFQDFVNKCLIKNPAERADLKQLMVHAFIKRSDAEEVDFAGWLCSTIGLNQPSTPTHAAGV

[36] = test system: OVCAR-5; assay: Anticancer activity against human OVCAR-5 cells assessed as cell growth inhibition incubated for 48 hrs by SRB assay; assay type: functional
[37] = test system: HCC 2998; assay: Anticancer activity against human HCC 2998 cells assessed as cell growth inhibition incubated for 48 hrs by SRB assay; assay type: functional
[38] = test system: UO-31; assay: Anticancer activity against human UO-31 cells assessed as total cell growth inhibition incubated for 48 hrs by SRB assay; assay type: functional
[39] = test system: TK-10; assay: Anticancer activity against human TK-10 cells assessed as total cell growth inhibition incubated for 48 hrs by SRB assay; assay type: functional
[40] = test system: HOP-62; assay: Anticancer activity against human HOP-62 cells assessed as total cell growth inhibition incubated for 48 hrs by SRB assay; assay type: functional
[41] = test system: PC-3; assay: Anticancer activity against human PC-3 cells assessed as cell growth inhibition incubated for 48 hrs by SRB assay; assay type: functional
[42] = test system: CAKI-1; assay: Anticancer activity against human CAKI-1 cells assessed as total cell growth inhibition incubated for 48 hrs by SRB assay; assay type: functional
[43] = test system: SW-620; assay: Anticancer activity against human SW-620 cells assessed as cell growth inhibition incubated for 48 hrs by SRB assay; assay type: functional
[44] = test system: OVCAR-5; assay: Anticancer activity against human OVCAR-5 cells assessed as total cell growth inhibition incubated for 48 hrs by SRB assay; assay type: functional
[45] = test system: HCT-15; assay: Anticancer activity against human HCT-15 cells assessed as cell growth inhibition incubated for 48 hrs by SRB assay; assay type: functional
[46] = target: Vascular endothelial growth factor receptor 2 (Homo sapiens) (UniProt P35968); assay: Inhibition of KDR (unknown origin) at 1 uM in presence of ATP by hotspot kinase assay
Chain of Vascular endothelial growth factor receptor 2 (Homo sapiens) (P35968 whole entry): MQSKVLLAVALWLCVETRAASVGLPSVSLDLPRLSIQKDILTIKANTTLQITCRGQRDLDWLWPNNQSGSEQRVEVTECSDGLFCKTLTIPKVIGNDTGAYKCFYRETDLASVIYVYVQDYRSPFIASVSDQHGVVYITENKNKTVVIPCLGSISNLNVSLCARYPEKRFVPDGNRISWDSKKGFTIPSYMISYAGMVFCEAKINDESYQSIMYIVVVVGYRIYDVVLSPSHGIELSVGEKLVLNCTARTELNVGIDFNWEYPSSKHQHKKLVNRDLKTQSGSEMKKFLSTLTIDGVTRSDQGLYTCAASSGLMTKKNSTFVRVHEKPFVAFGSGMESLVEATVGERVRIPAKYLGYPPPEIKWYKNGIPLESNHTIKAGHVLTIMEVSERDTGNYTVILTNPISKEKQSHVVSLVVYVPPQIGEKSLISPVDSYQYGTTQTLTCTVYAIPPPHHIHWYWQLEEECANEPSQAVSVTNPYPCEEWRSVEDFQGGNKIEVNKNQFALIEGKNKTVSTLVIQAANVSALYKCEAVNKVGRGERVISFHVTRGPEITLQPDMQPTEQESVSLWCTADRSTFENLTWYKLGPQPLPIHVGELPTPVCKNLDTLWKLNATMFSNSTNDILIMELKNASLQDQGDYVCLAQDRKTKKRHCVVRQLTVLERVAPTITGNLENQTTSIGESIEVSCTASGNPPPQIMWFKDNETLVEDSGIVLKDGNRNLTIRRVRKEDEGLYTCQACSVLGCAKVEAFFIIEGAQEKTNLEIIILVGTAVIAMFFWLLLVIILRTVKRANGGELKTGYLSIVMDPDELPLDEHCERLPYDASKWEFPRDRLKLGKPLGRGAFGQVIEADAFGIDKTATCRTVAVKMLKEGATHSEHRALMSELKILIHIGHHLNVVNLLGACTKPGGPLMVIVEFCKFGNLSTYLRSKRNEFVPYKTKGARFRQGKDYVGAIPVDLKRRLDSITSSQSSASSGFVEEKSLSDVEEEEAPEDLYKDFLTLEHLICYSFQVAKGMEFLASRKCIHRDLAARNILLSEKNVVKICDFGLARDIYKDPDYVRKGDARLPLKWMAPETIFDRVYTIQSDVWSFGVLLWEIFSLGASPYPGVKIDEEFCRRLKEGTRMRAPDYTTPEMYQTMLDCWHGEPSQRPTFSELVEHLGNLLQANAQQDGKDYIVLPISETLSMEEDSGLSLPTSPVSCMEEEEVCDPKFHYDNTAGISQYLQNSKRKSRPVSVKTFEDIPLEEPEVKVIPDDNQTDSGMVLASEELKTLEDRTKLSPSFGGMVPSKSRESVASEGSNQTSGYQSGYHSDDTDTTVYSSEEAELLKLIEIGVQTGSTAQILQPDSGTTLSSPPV

[47] = target: Epidermal growth factor receptor (Homo sapiens) (UniProt P00533); assay: Inhibition of EGFR (unknown origin) at 1 uM in presence of ATP by hotspot kinase assay

## COc1cc2cc(Oc3ccc(NC(=O)Nc4ccc(Cl)c(C(F)(F)F)c4)cc3)c(C)nc2cc1OCCN1CCOCC1
[1]
  TGI: 3.12 µM
[2]
  TGI: 9.62 µM
[3]
  GI50: 4.97 µM
[4]
  TGI: > 100 µM
[5]
  TGI: 10.8 µM
[6]
  TGI: 2.37 µM
[7]
  TGI: 11.6 µM
[8]
  GI50: 2.07 µM
[9]
  GI50: 11.2 µM
[10]
  TGI: 6.95 µM
[11]
  GI50: 2.05 µM
[12]
  GI50: 2.69 µM
[13]
  GI50: 1.63 µM
[14]
  TGI: 13.8 µM
[15]
  inhibition: 23.2%
[16]
  TGI: 3.89 µM
[17]
  TGI: 11.1 µM
[18]
  GI50: 2.67 µM
[19]
  GI50: 1.52 µM
[20]
  TGI: 4.1 µM
[21]
  inhibition: 13.2%
[22]
  GI50: 2.63 µM
[23]
  TGI: 6 µM
[24]
  GI50: 2 µM
[25]
  GI50: 2.34 µM
[26]
  TGI: 3.62 µM
[27]
  inhibition: 17.3%
[28]
  GI50: 1.55 µM
[29]
  solubility: 349 µM (≈ 221 µg/mL)
[30]
  TGI: 5.91 µM
[31]
  GI50: 0.94 µM
[32]
  TGI: 3.9 µM
[33]
  GI50: 1.68 µM
[34]
  TGI: 3.27 µM
[35]
  inhibition: 21.7%
[36]
  GI50: 4.02 µM
[37]
  GI50: 11.1 µM
[38]
  TGI: 3.34 µM
[39]
  TGI: 35.2 µM
[40]
  TGI: 4.55 µM
[41]
  GI50: 1.36 µM
[42]
  TGI: 10.8 µM
[43]
  GI50: 5.52 µM
[44]
  TGI: 65.2 µM
[45]
  GI50: 3.18 µM
[46]
  inhibition: 1.56%
[47]
  inhibition: -2.4%

## COc1cc2cc(Oc3ccc(NC(=O)Nc4ccc(F)c(C(F)(F)F)c4)cc3)c(C)nc2cc1OCCN1CCOCC1
[1]
  TGI: 3.13 µM
[2]
  TGI: 10.2 µM
[3]
  GI50: 4.94 µM
[4]
  TGI: 34.3 µM
[5]
  TGI: 11.2 µM
[6]
  TGI: 2.36 µM
[7]
  TGI: 11.4 µM
[8]
  GI50: 2.53 µM
[9]
  GI50: 3.07 µM
[10]
  TGI: 10.3 µM
[11]
  GI50: 3.99 µM
[12]
  GI50: 3.5 µM
[13]
  GI50: 1.87 µM
[14]
  TGI: 15.2 µM
[15]
  inhibition: 18.3%
[16]
  TGI: 5.88 µM
[17]
  TGI: 16.7 µM
[18]
  GI50: 2.73 µM
[19]
  GI50: 1.57 µM
[20]
  TGI: 3.9 µM
[21]
  inhibition: 28.4%
[22]
  GI50: 2.44 µM
[23]
  TGI: 10.1 µM
[24]
  GI50: 2.83 µM
[25]
  GI50: 2.56 µM
[26]
  TGI: 5.34 µM
[27]
  inhibition: 10.4%
[28]
  GI50: 1.62 µM
[29]
  solubility: 497 µM (≈ 305 µg/mL)
[30]
  TGI: 13.2 µM
[31]
  GI50: 1.12 µM
[32]
  TGI: 11.1 µM
[33]
  GI50: 1.77 µM
[34]
  TGI: 3.24 µM
[35]
  inhibition: 13.1%
[36]
  GI50: 5.11 µM
[37]
  GI50: 5.34 µM
[38]
  TGI: 10.6 µM
[39]
  TGI: 25.1 µM
[40]
  TGI: 20.5 µM
[41]
  GI50: 1.44 µM
[42]
  TGI: 9.55 µM
[43]
  GI50: 3.34 µM
[44]
  TGI: 21.7 µM
[45]
  GI50: 1.73 µM
[46]
  inhibition: -2.9%
[47]
  inhibition: 1.43%
